Data: patent US7820689B2, “Methods and compositions for preventing or treating cardiovascular disease” (priority 2006, dated 2010)
Read-outs that look alike come from different tables or passages of the source.

Tests used:
[1] = test system: NADPH oxidase-deficient mice; details: Zhang et al. 2004; cited from earlier work
apoE-deficient mice = format: in vivo
Experimental: ApoE-deficient mice were fed with a high cholesterol diet containing 21% fat and 0.15% cholesterol (PMI LabDiet 40097, Richmond, Ind., USA) from 8-17 weeks of age. […] After completing the treatment, blood samples were collected by direct heart puncture when sacrificing the animals. The serum levels of total cholesterol, LDL, HDL, and triglyceride were measured by enzymatic methods using an automatic analyzer (Model 747, Hitachi Ltd. Co., Tokyo, Japan). The aorta was dissected from the aortic valve to the iliac bifurcation. To identify lipid-rich atherosclerotic lesions, the aorta was rinsed in 50% isopropanol for 2 minutes, incubated in 0.67% Oil-Red-O for 15 minutes, and washed by 10% isopropanol for 2 minutes. Using a dissection microscope, the area of each atherosclerotic lesion was measured with Image Pro Plus software (Version 3.0.1; Media Cybernetics, Inc, Silver Spring, Md., USA) and expressed as percentage of atherosclerotic area/total area of the aorta.

THP-1 cells = experiment: MTT cell viability assay; format: cell-based, human; details: with or without LPS
Experimental: Cell viability was determined with the 3 (4,5-dimethylthiazol-2-yl) 2,5-diphenyltetrazolium bromide (MTT) assay in each treatment group described above. Briefly, fresh medium was added to cells together with 10% MTT (5 mg/mL). Each plate was maintained at 37° C. for 2 hours and subsequently formazan crystals were dissolved in DMSO. Absorbance was read at a wavelength of 550 nm using a SPECTRAmax PLUS^384 spectrophotometer (Molecular Devices, CA, USA).

[2] = test system: superoxide in the thoracic aorta; experiment: Superoxide production in thoracic aorta of apoE-deficient mice, lucigenin chemiluminescence; format: in vivo; details: 10 weeks, controls 534,000±145,000
Experimental: ApoE-deficient mice were treated daily with DM 5 mg/kg/day (n=9), 10 mg/kg/day (n=9), 20 mg/kg/day (n=9) or 40 mg/kg/day (n=11) for 10 weeks. Production of superoxide in PMN (1×10^6 cells/mL PBS) (A) was measured by lucigenin-enhanced chemiluminescence. The results are expressed as mean±SD. (P<0.05, control versus 10 mg/kg/day; P<0.001, control versus 20 mg/kg/day and 40 mg/kg/day). Production of superoxide in the thoracic aorta (B) was also measured by lucigenin-enhanced chemiluminescence. The results are expressed as mean±SD. (P<0.05, control versus 10 mg/kg/day and 40 mg/kg/day; P<0.01, control versus 20 mg/kg/day).
Having established the DM inhibitory effect on macrophage activation and NADPH oxidase, we next examined the functional consequences of which in vivo. […] Sections of left carotid arteries from the mice were stained with DHE and then imaged with a laser scanning confocal microscope.

[3] = test system: IL-6 release from THP-1 cells after LPS stimulation; experiment: LPS-induced IL-6 release in THP-1 macrophage culture (ELISA); format: cell-based, human
Experimental: (§1) THP-1 cells were grown in the RPMI-1640 medium containing 10% fetal bovine serum at 37° C. in 5% CO2. The cells were differentiated to macrophages after treatment of the culture with 100 nM PMA for 24 hours. The cell suspension (5×10^5) was added in 0.5 mL into each well of the tissue culture plates. For each experiment, naloxone was prepared immediately before use. LPS was dissolved in sterile water and stored at −70° C. in aliquots. LDL was isolated from human endotoxin-free heparin plasma and was oxidized using CuSO4. In brief, LDL (1 mL, 1 mg/mL) was dialyzed in 500 mL phosphate-buffered saline (PBS, pH 7.4) overnight. Copper sulfate was added to a final concentration of 5 μM, and the LDL was allowed to oxidize at room temperature for 24 hours.
(§2) The supernatants were harvested and the TNF-α, IL-6, and MCP-1 levels were determined by ELISA. Superoxide production in the THP-1 cell culture was measured by lucigenin-enhanced chemiluminescence as described previously (Khadour F H, Panas D, Ferdinandy P, et al. Am J Physiol Heart Circ Physiol, 28:H1108-15 2002). LPS-treated THP-1 cells were treated with PBS containing 1.25 mM lucigenin, and counts were obtained for a 10-minute period in a luminometer (Berthold Technologies, Germany) as relative light units (RLU) emitted. Background counts determined in cell-free preparations were subtracted. Superoxide levels were reported as RLU per 10 minutes and were normalized to the volume (mL) of cell suspension added (i.e., RUL/10 min/mL).

[4] = test system: IL-6 release from THP-1 cells after oxLDL stimulation; experiment: oxLDL-induced IL-6 release in THP-1 macrophage culture (ELISA); format: cell-based, human
Experimental: as §1, §2

[5] = test system: superoxide production in THP-1 cell culture; experiment: LPS-induced macrophage superoxide production, lucigenin-enhanced chemiluminescence; format: cell-based, human
Experimental: as §1, with “For each experiment, naloxone was prepared immediately before use.” left out
as §2
We used lucigenin-enhanced chemiluminescence to assess the DM effect on macrophage superoxide production after stimulation.

COc1ccc2c(c1)[C@]13CCCC[C@@H]1[C@H](C2)N(C)CC3 [DM, (+)-3-methoxy-17-methyl-9α,13α,14α-morphinan]
anti-inflammatory effect [1]: anti-inflammatory effect was not observed
aortic atherosclerotic lesion area (apoE-deficient mice; DM 5 mg/kg/day 10 weeks, P=NS, controls 16.9±4.3): 14.1±5.7%
aortic atherosclerotic lesion area (apoE-deficient mice; DM 10 mg/kg/day 10 weeks, controls 16.9±4.3): 8.2±3.8%
aortic atherosclerotic lesion area (apoE-deficient mice; DM 20 mg/kg/day 10 weeks, controls 16.9±4.3): 5.0±2.0%
aortic atherosclerotic lesion area (apoE-deficient mice; DM 40 mg/kg/day 10 weeks, controls 16.9±4.3): 4.6±3.6%
cell viability (MTT) (THP-1 cells; 0.01, 0.1, or 1 μM DM): no significant changes of the cell viability
superoxide in the thoracic aorta ([2]; 5 mg/kg, P=NS): 424,000±141,000 RLU/15 min
superoxide in the thoracic aorta ([2]; 10 mg/kg): 377,000±97,000 RLU/15 min
superoxide in the thoracic aorta ([2]; 20 mg/kg): 341,000±94,000 RLU/15 min
superoxide in the thoracic aorta ([2]; 40 mg/kg): 379,000±84,000 RLU/15 min
IL-6 in medium ([3]; DM 0.01 μM pretreatment, LPS alone 9.53±1.95): 6.22 ± 2.46 ng/mL
IL-6 in medium ([3]; DM 0.1 μM pretreatment, LPS alone 9.53±1.95): 6.21 ± 1.89 ng/mL
IL-6 in medium ([3]; DM 1 μM pretreatment, LPS alone 9.53±1.95): 5.36 ± 1.76 ng/mL
IL-6 in medium ([4]; DM 0.01 μM pretreatment, oxLDL alone 2.46±1.20): 1.40 ± 0.58 ng/mL
IL-6 in medium ([4]; DM 0.1 μM pretreatment, oxLDL alone 2.46±1.20): 1.28 ± 0.64 ng/mL
IL-6 in medium ([4]; DM 1 μM pretreatment, oxLDL alone 2.46±1.20): 1.33 ± 0.67 ng/mL
macrophage superoxide production ([5]; DM 0.01 μM pretreatment, LPS alone 612,000±105,000): 341,000±82,000 RLU/15 min/mL
macrophage superoxide production ([5]; DM 0.1 μM pretreatment, LPS alone 612,000±105,000): 303,000±109,000 RLU/15 min/mL
macrophage superoxide production ([5]; DM 1 μM pretreatment, LPS alone 612,000±105,000): 257,000±45,000 RLU/15 min/mL

C=CCN1CC[C@]23c4c5ccc(O)c4O[C@H]2C(=O)CC[C@@]3(O)[C@H]1C5 [Naloxone, 17-allyl-4,5α-epoxy-3,14-dihydroxymorphinan-6-one]
aortic atherosclerotic lesion area (apoE-deficient mice; 10 mg/kg/day i.p. 10 weeks, PBS 12.9±6.1): 5.2±3.8%
aortic atherosclerotic lesion area (apoE-deficient mice; 20 mg/kg/day i.p. 10 weeks, PBS 12.9±6.1): 3.4±1.4%
aortic atherosclerotic lesion area (apoE-deficient mice; 25 mg/kg/day i.p. 10 weeks, PBS 12.9±6.1): 1.8±1.2%
cell viability (MTT) (THP-1 cells; 0.01, 0.1, or 1 μM naloxone): no significant changes of the cell viability
IL-6 in medium ([3]; 0.01 μM pretreatment, LPS alone 5.02±0.14): 3.74 ± 0.31 ng/mL
IL-6 in medium ([3]; 0.1 μM pretreatment, LPS alone 5.02±0.14): 3.28 ± 0.14 ng/mL
IL-6 in medium ([3]; 1 μM pretreatment, LPS alone 5.02±0.14): 3.44 ± 0.48 ng/mL
IL-6 in medium ([4]; 0.01 μM pretreatment, oxLDL alone 1.51±0.08): 1.05 ± 0.03 ng/mL
IL-6 in medium ([4]; 0.1 μM pretreatment, oxLDL alone 1.51±0.08): 1.01 ± 0.01 ng/mL
IL-6 in medium ([4]; 1 μM pretreatment, oxLDL alone 1.51±0.08): 1.05 ± 0.07 ng/mL
macrophage superoxide production ([5]; 0.1 μM pretreatment, LPS alone 817,000±90,000): 364,000±202,000 RLU/10 min/mL
macrophage superoxide production ([5]; 1 μM pretreatment, LPS alone 817,000±90,000): 362,000±24,000 RLU/10 min/mL
